From PMC8522962 (Reproductive Toxicology (Elmsford, N.y.), 2021)
Entries after “also recorded” stand apart in the source; their conditions may differ.

Tests used:
[1] = tested on: T/Bra::GFP mouse gastruloids; assay: Mouse gastruloid assay, T/Bra::GFP reporter line; type: cell-based; settings: for adverse effects on reporter gene expression (words): mouse system, up to the highest concentration levels
mouse gastruloids = assay: Mouse gastruloid assay, both lines or line not specified; type: cell-based; settings: for mouse Gastruloid LOAEL: lowest observable adverse effect level; for overall outcome in the mouse gastruloid model: summary statements
[2] = tested on: differentiation of mouse embryonic stem cells (ES-D3) into beating cardiomyocytes; assay: Mouse embryonic stem cell test; type: cell-based; settings: for mEST ID50: half maximal inhibitory concentration of cardiomyocyte differentiation
hiPSC-derived EBs = assay: Human 3D in vitro model, hiPSC-derived embryoid bodies; type: cell-based; settings: threshold concentration where 20 % of teratogenicity was detected by differential expression
rats = settings: read-out: rat in vivo LOAEL Cmax; maximum plasma concentration at LOAEL; cited from earlier work
[3] = EMA ICH S5 (R3) guidelines; cited from earlier work
plasma protein = settings: cited from earlier work; for free fractions of unbound compound: human therapeutic concentrations
[4] = tested on: RUES2-GLR human gastruloids; assay: Human gastruloid assay, RUES2-GLR line; settings: for Human Gastruloid LOAEL: lowest observable adverse effect level; for overall outcome in the human gastruloid model: summary statements; for adverse effects on reporter gene expression (words): up to the highest concentration levels
[5] = tested on: E14Tg2A mouse gastruloids; assay: Mouse gastruloid assay, E14Tg2A line; type: cell-based
rabbits = settings: cited from earlier work

## CCCC(CCC)C(=O)O [Valproic Acid]
[1]; 4 μM
  GFP expression: maintained localised GFP expression
[1]; concentrations higher than 4 μM
  size, elongation and GFP expression: smaller gastruloids, impaired elongation and a loss of GFP expression
Mouse gastruloids; 4 μM, mouse gastruloids
  tolerability: fairly well tolerated
Mouse gastruloids; 1 mM, mouse system
  toxicity judged from decrease in gastruloid size: seem to induce toxicity
Mouse gastruloids; concentrations higher than 333 μM, mouse gastruloids
  effect on shape and size: clearly spherical mouse gastruloids
Mouse gastruloids; 120 h
  mouse Gastruloid LOAEL: 333 µM
Mouse gastruloids
  overall outcome in the mouse gastruloid model: similarly teratogenic; also recorded: adverse morphological effects
[2]
  mEST ID50: 589 µM
hiPSC-derived EBs
  hiPSC- derived EBs TC20: 85 µM
rats
  Cmax: 1600 µM
[3]
  Teratogenicity classification: Positive
Plasma protein
  plasma protein binding: ≥ 90%
  free fractions of unbound compound: 0.3−0.5 mM
[4]; 4 μM, human gastruloids
  effect on size: decrease in size
  tolerability: fairly well tolerated
[4]; 333 μM
  SOX2 and BRA reporter expression vs 0.2 % DMSO controls: very low SOX2 expression and elevated BRA expression
  axial elongation morphogenesis: failed to undergo axial elongation morphogenesis
[4]; 1 mM, human system
  toxicity judged from decrease in gastruloid size: seem to induce toxicity
[4]; 72 h
  Human Gastruloid LOAEL: 333 µM
[4]
  overall outcome in the human gastruloid model: similarly teratogenic

## CC1(C)S[C@@H]2[C@H](NC(=O)Cc3ccccc3)C(=O)N2[C@H]1C(=O)O [Penicillin G]
[5]; 63 μM, 1 mM and 2 mM, water control
  morphological changes vs control: small morphological changes resulting in slightly larger, more elongated or less circular gastruloids
[1]; listed as Penicillin
  adverse effects on reporter gene expression (words): No observable adverse effects on reporter gene expression
[1]; listed as penicillin G
  adverse effects on reporter gene expression (words): did not cause any adverse effects on reporter gene expression
[4]; 63 μM and 1 mM
  effect on size: minimal effects of increased size
[4]; human system, listed as Penicillin
  adverse effects on reporter gene expression (words): No observable adverse effects on reporter gene expression
[4]; human system, listed as penicillin G
  adverse effects on reporter gene expression (words): did not cause any adverse effects on reporter gene expression

## CC(C)Cc1ccc(C(C)C(=O)O)cc1 (centres unmarked) [Ibuprofen]
[1]; all ibuprofen treatments tested (63-250 μM)
  GFP expression: marked increase in GFP expression
Mouse gastruloids; 63−250 μM, 0.12 % DMSO control
  growth and morphology vs vehicle-only controls: no consistent effect on growth or morphology
Mouse gastruloids; 120 h
  mouse Gastruloid LOAEL: 63 µM
Mouse gastruloids; 120 h, listed as ibuprofen
  mouse Gastruloid LOAEL: 63 µM
Mouse gastruloids
  overall outcome in the mouse gastruloid model: adverse effects on gene expression
[2]
  mEST prediction: negative
hiPSC-derived EBs
  hiPSC- derived EBs TC20: 855 µM
rats
  Cmax: 1600 µM
rabbits
  effects in rabbits in vivo: no effects
[4]; 63 μM
  SOX2 expression vs vehicle-only controls: marginally elevated
[4]; 63 μM and 250 μM
  size and circularity: reduced size and increased circularity
[4]; 72 h
  Human Gastruloid LOAEL: 63 µM

## O=C1NC(=O)C(c2ccccc2)(c2ccccc2)N1 [Phenytoin]
[5]; 1−20 μM, 0.1 % DMSO control
  size and morphology vs vehicle-only controls: not significantly different compared to the vehicle-only controls in terms of size and morphology
[1]; 20 μM
  size and circularity: significantly smaller and more circular
[1]; > 5 μM
  T/Bra::GFP expression: negatively correlated with increasing concentrations of phenytoin
Mouse gastruloids
  overall outcome in the mouse gastruloid model: adverse effects on gene expression
[2]
  mEST ID50: 0.39 µM
hiPSC-derived EBs
  hiPSC- derived EBs TC20: < 8 µM
rats
  Cmax: 106 µM
[3]
  Teratogenicity classification: Positive
Plasma protein
  plasma protein binding: 90%
  free fractions of unbound compound: 3 to 9 µM
[4]; 20 μM, One-Way ANOVA α = 0.05
  area: significantly reduced area
[4]; 1−20 μM
  proportions and patterns of gene expression: maintained proportions and patterns of gene expression that were comparable to controls
[4]
  overall outcome in the human gastruloid model: falls below the limit of detectable effect

## O=C1CCC(N2C(=O)c3ccccc3C2=O)C(=O)N1 (centres unmarked) [Thalidomide]
[1]; increasing concentrations (100 μM)
  GFP expression: reduced GFP expression
Mouse gastruloids; 0.4−100 μM, both lines
  size and morphology: not significantly altered in either size or morphology
Mouse gastruloids
  overall outcome in the mouse gastruloid model: adverse effects on gene expression
[2]
  mEST prediction: false negative
[2]; concentrations up to 2 mM
  mEST inhibition of cardiomyocytes: did not show any inhibition of cardiomyocytes
hiPSC-derived EBs
  hiPSC- derived EBs TC20: < 0.1 µM
rats
  Cmax: 19 µM
[3]
  Teratogenicity classification: Positive
[4]; 0.4 μM and 100 μM
  SOX2 expression: clearly increased SOX2 expression
  gastruloid size: significant decreases in gastruloid size
[4]; 72 h
  Human Gastruloid LOAEL: 0.4 µM
[4]
  overall outcome in the human gastruloid model: potentially teratogenic

## COc1ccccc1Oc1c(NS(=O)(=O)c2ccc(C(C)(C)C)cc2)nc(-c2ncccn2)nc1OCCO [Bosentan]
[1]; 4 μM and 8 μM
  morphology vs controls: larger and more elongated than controls
[1]; cultured in the presence of bosentan (4-18 μM)
  GFP expression: robust GFP expression that was localised to the pole of the elongations
Mouse gastruloids; 4–18 μM, mouse gastruloids
  size and morphogenesis vs controls: slightly larger than controls, but did not appear to be defective in morphogenesis
[2]
  mEST prediction: false negative
  mEST ID50: 68.2 µM
hiPSC-derived EBs
  hiPSC- derived EBs TC20: 13 µM
rats
  Cmax: 30 µM
rabbits
  effects in rabbits in vivo: no effects
[3]
  Teratogenicity classification: Positive
[4]; 4 μM
  germ layer representation and axial elongation: maintain representation of all three germ layers and axial elongation morphogenesis
  size vs DMSO: marginally smaller than DMSO-treated gastruloids
[4]; 18 μM
  SOX17 expression: lose expression of SOX17
[4]; 18 μM, 72 h, vehicle controls 88 %
  human gastruloids showing low levels of SOX17 expression, on average: 33%
[4]; 72 h
  Human Gastruloid LOAEL: 18 µM
[4]
  overall outcome in the human gastruloid model: potentially teratogenic

## CC1=C(/C=C/C(C)=C/C=C/C(C)=C/C(=O)O)C(C)(C)CCC1 [Retinoic Acid, All-trans retinoic acid]
[1]; all ATRA treatments (0.4-100 nM), 120 h
  T/Bra::GFP expression: apparent loss of T/Bra::GFP expression
Mouse gastruloids; 0.4 nM, 120 h, both lines
  effect on axial extension: significant inhibition of axial extension
Mouse gastruloids; 33 nM, 100 nM, 120 h, both lines
  effect on size and shape: drastically reduced size, and gastruloids assumed a spherical shape without any axial elongation
Mouse gastruloids; 120 h
  dosages likely to be cytotoxic or cytostatic in the mouse system: > 0.4 nM
  mouse Gastruloid LOAEL: 0.0004 µM
Mouse gastruloids
  overall outcome in the mouse gastruloid model: similarly teratogenic; also recorded: adverse morphological effects
[2]
  mEST ID50: 0.0037 µM
[2]; listed as ATRA
  mEST ID50: 0.003 µM
rats
  Cmax: 1 µM
[3]
  Teratogenicity classification: Positive
[4]; 0.4 nM, 72 h
  germ layer representation and axial elongation: maintain an equivalent representation of the three germ layers and underwent partial axial elongation
  size and circularity vs controls: significantly smaller and more circular than controls
[4]; 33 nM, 72 h
  axial extension and SOX2 expression: completely inhibited axial extension and promoted the over-expression of SOX2
[4]; 33 nM, 72 h, three replicates
  BRA expression: no detectable BRA expression
[4]; 33 nM, 72 h, DMSO controls 88 %
  human gastruloids expressing SOX17 at low levels, on average: 42%
[4]; 72 h
  Human Gastruloid LOAEL: 0.0004 µM
[4]
  overall outcome in the human gastruloid model: similarly teratogenic
